Structures are written as SMILES. Like-named read-outs stand apart in the source and are kept apart here. Numbered stars: 1 amine (or outer) side, 2 acyl side, 3 side chain; on linkers, the order of the positions; unused ones are H or OH. Bridge positions count the residues as written; N and C are the ends. Peptide text beside a SMILES is read from it. * marks the point of attachment. 5FAM = O=C1OC2(c3ccc(O)cc3Oc3cc(O)ccc32)c2ccc(C(=O)*)cc21; X1 = O=C(O)c1cc(C(=O)*)ccc1-c1c2ccc(=O)cc-2oc2cc(O)ccc12; CH2COCH2 = O=C(C[*:1])C[*:2]

For data set [1], the target named is T1, native calprotectin (tetramer, + CaCl2) (Homo sapiens, UniProt P05109+P06702).
T1 construct: Native calprotectin is derived from granulocytes; tissue gift from Thomas Vogl, Institute of Immunology, University of Muenster; host or cells: granulocytes
T1 sequence (P05109 1-93): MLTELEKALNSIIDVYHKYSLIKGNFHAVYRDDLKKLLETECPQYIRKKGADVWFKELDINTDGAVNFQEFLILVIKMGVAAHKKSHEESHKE
T1 sequence (P06702 2-114 limits assumed): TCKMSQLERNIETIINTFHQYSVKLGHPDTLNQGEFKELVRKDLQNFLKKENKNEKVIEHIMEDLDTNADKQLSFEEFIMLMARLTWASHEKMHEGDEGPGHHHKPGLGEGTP
Kind of data set: FP binding to native calprotectin derived from granulocytes. How it is done: Fluorescence anisotropy was measured on a microwell plate reader (Infinite M200Pro, Tecan) with filters for excitation at 485 nm and emission at 535 nm. The dissociation constant (Kd) was calculated using a following Eq. […] [L]T is the concentration of the total fluorescent ligand and [P]T the concentration of the protein. Native calprotectin is derived from granulocytes (kind gift from Thomas Vogl, Institute of Immunology, University of Muenster) and was purified as described in ref. [34]. The size and concentration was analyzed and compared to B-RCAL by standard SDS-PAGE.

In data set [2] the target is T2, calprotectin tetramer (recombinant B-RCAL, His6-linker-S100A9-linker-S100A8) (Homo sapiens, UniProt P05109).
T2 construct: we used the recombinant protein without removing the His-tag or cleaving the 8-amino acid linker between the two proteins; co-authors' company
T2 sequence (P05109 with tags, fused parts or gaps): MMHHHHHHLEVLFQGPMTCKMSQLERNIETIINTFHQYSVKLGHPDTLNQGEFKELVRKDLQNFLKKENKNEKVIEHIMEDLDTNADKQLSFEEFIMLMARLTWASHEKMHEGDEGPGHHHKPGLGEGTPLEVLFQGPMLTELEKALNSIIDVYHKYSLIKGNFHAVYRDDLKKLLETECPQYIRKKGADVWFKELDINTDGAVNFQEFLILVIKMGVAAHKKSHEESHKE
As to the kind of experiment: Fluorescence polarization (FP) binding to recombinant calprotectin B-RCAL tetramer in presence of CaCl2. As to conditions: for effect of mutation to alanine on binding: alanine scan of linear peptide 3, found via FP and SPR. How it is done: Calprotectin was serially diluted in 20 mM HEPES, 100 mM NaCl, 2 mM CaCl2, pH 7.5, and 1 mM DTT with 0.01% (v/v) Tween-20. Volumes of 16 μL of protein were added to 4 μL of fluorescent peptide (20 nM final concentration) in black 384-well microtiter plates. Fluorescence anisotropy was measured on a microwell plate reader (Infinite M200Pro, Tecan) with filters for excitation at 485 nm and emission at 535 nm. The dissociation constant (Kd) was calculated using a following Eq. (1) using Prism 5 software (GraphPad):1 A=Af+Ab−Af×LT+KD+PT−LT+KD+PT^2−4LTPT/2LT where A is anisotropy, Af and Ab are the anisotropy values for free and bound ligands, respectively. [L]T is the concentration of the total fluorescent ligand and [P]T the concentration of the protein.
On the technique in general: In fluorescence polarisation assays a small probe gives low polarisation when free and higher when bound to something large.

Data set [3] deals with T3, calprotectin tetramer (recombinant B-RCAL) (Homo sapiens, UniProt P05109).
T3 sequence (P05109 with tags, fused parts or gaps): T2 sequence (P05109 with tags, fused parts or gaps)
As to the kind of experiment: biochemical.
Method: SPR measurements were performed using a Biacore^TM 8 K instrument (GE Healthcare) using the Biacore^TM 8 K Control software. Recombinant calprotectin (B-RCAL) was diluted with 10 mM acetate buffer (pH 5.0) to reach a concentration of 5 μg/mL and immobilized on a CM5 series S chip using the standard amine coupling method in running buffer (10 mM HEPES pH 7.4, 150 mM NaCl, 2 mM CaCl2, and 0.005% v/v Tween-20) at 25 °C and the following procedure. At a flow of 10 μL/min, the following solutions were injected: 420 s 0.4 M EDC, 0.1 M NHS; 100 to 200 s protein; 500 s 1 M ethanolamine-HCl pH 8.5. Typical immobilization levels were 3000 resonance units (RUs). A reference cell was treated in the same way but without the injection of protein. A single concentration for each peptide (500 nM) was injected in a running buffer containing 0.5% (v/v) DMSO to measure the binding level. For the measurement of binding kinetics and dissociation constants, five serial dilutions (threefold) of peptides were prepared in running buffer containing 0.5% (v/v) DMSO and analyzed in single cycle kinetics mode with the contact and dissociation times of 90 s and 120 s, respectively. Data were analyzed using Biacore^TM 8 K Evaluation software.

A short description of data set [4]: Methionine oxidation of peptide upon storage in solution. It is filed as physicochemical.
Data set [5] has as its target T3, calprotectin tetramer (recombinant B-RCAL). As to the kind of experiment: SPR binding level at a single peptide concentration (500 nM). Also on record: we used the recombinant protein without removing the His-tag or cleaving the 8-amino acid linker between the two proteins; co-authors' company. The settings on record: peptides injected at 500 nM, single measurement. An excerpt:
Typical immobilization levels were 3000 resonance units (RUs).
In general terms: Surface plasmon resonance follows binding to a sensor surface in real time, without labels.

[6] abbreviates: FP, alanine scan of linear peptide 3, 20 nM peptide, 2 mM CaCl2, one measurement, NB = non-binding.

In the case of `CSCC[C@H](NC(=O)[C@@H]1CCCN1C(=O)[C@H](Cc1ccccc1)NC(=O)[C@H](C)NC(=O)[C@@H](NC(=O)[C@@H]1CSCC(=O)CSC[C@H](NC(=O)[C@H](CCCNC(=N)N)NC(=O)c2ccc3c(c2)C(=O)OC32c3ccc(O)cc3Oc3cc(O)ccc32)C(=O)N2CCC[C@H]2C(=O)N[C@@H](CCC(=O)O)C(=O)N1)C(C)C)C(=O)N[C@@H](Cc1ccccc1)C(=O)N[C@@H](CCC(N)=O)C(=O)N[C@H]1CSCC(=O)CSC[C@@H](C(=O)NCC(N)=O)NC(=O)[C@H](Cc2ccc(O)cc2)NC(=O)[C@H](Cc2c[nH]c3ccccc23)NC(=O)[C@H](Cc2c[nH]cn2)NC1=O` (single isomer, unassigned) [Peptide 3 Isomer 1], the figures for the Kd in data set [1], in data set [2] and in data set [3] were 26 ± 2 nM, 24 ± 10 nM and 51 nM, respectively.
Regarding `CSCC[C@H](NC(=O)[C@@H]1CCCN1C(=O)[C@H](Cc1ccccc1)NC(=O)[C@H](C)NC(=O)[C@@H](NC(=O)[C@@H]1CSCC(=O)CSC[C@H](NC(=O)[C@H](CCCNC(=N)N)NC(=O)c2ccc(-c3c4ccc(=O)cc-4oc4cc(O)ccc34)c(C(=O)O)c2)C(=O)N2CCC[C@H]2C(=O)N[C@@H](CCC(=O)O)C(=O)N1)C(C)C)C(=O)N[C@@H](Cc1ccccc1)C(=O)N[C@@H](CCC(N)=O)C(=O)N[C@H]1CSCC(=O)CSC[C@@H](C(=O)NCC(N)=O)NC(=O)[C@H](Cc2ccc(O)cc2)NC(=O)[C@H](Cc2c[nH]c3ccccc23)NC(=O)[C@H](Cc2c[nH]cn2)NC1=O` [Peptide 3] (X1-RCPECVAFPMFQCHWYCG-NH2; linker 2-5, 13-17 via CH2COCH2), in data set [4], the “oxidation upon storage in solution” value is “a small quantity was oxidized”. Moreover, the Kd (usually the equilibrium constant for the complex coming apart) in data set [2] (FP, 20 nM peptide, 2 mM CaCl2, Rep 1) is listed as 20 nM. In addition, in data set [2] (FP, 2 mM CaCl2), the “FP increase upon binding to calprotectin” value is recorded as “around 50%”.
As to `CSCC[C@H](NC(=O)[C@@H]1CCCN1C(=O)[C@H](C)NC(=O)[C@H](C)NC(=O)[C@@H](NC(=O)[C@H](CO)NC(=O)[C@H](CCC(=O)O)NC(=O)[C@@H]1CCCN1C(=O)[C@H](CO)NC(=O)[C@H](CCCNC(=N)N)NC(=O)c1ccc2c(c1)C(=O)OC21c2ccc(O)cc2Oc2cc(O)ccc21)C(C)C)C(=O)N[C@@H](Cc1ccccc1)C(=O)N[C@@H](CCC(N)=O)C(=O)N[C@@H](CO)C(=O)N[C@@H](Cc1c[nH]cn1)C(=O)N[C@@H](Cc1c[nH]c2ccccc12)C(=O)N[C@@H](Cc1ccc(O)cc1)C(=O)N[C@@H](CO)C(=O)NCC(N)=O` [Peptide F8A] (5FAM-RSPESVAAPMFQSHWYSG-NH2), the Response at binding in data set [5] was -0.0133 RU. Besides, the “effect of mutation to alanine on binding” value in data set [2] was “complete loss in binding”.
With `CSCC[C@H](NC(=O)[C@@H]1CCCN1C(=O)[C@H](Cc1ccccc1)NC(=O)[C@H](C)NC(=O)[C@@H](NC(=O)[C@H](CO)NC(=O)[C@H](CCC(=O)O)NC(=O)[C@@H]1CCCN1C(=O)[C@H](CO)NC(=O)[C@H](CCCNC(=N)N)NC(=O)c1ccc2c(c1)C(=O)OC21c2ccc(O)cc2Oc2cc(O)ccc21)C(C)C)C(=O)N[C@@H](C)C(=O)N[C@@H](CCC(N)=O)C(=O)N[C@@H](CO)C(=O)N[C@@H](Cc1c[nH]cn1)C(=O)N[C@@H](Cc1c[nH]c2ccccc12)C(=O)N[C@@H](Cc1ccc(O)cc1)C(=O)N[C@@H](CO)C(=O)NCC(N)=O` [Peptide F11A] (5FAM-RSPESVAFPMAQSHWYSG-NH2), the Response at binding in data set [5] was -1.75 RU. In addition, the “effect of mutation to alanine on binding” value in data set [2] is listed as “complete loss in binding”.
For `CSCC[C@H](NC(=O)[C@@H]1CCCN1C(=O)[C@H](Cc1ccccc1)NC(=O)[C@H](C)NC(=O)[C@@H](NC(=O)[C@H](CO)NC(=O)[C@H](CCC(=O)O)NC(=O)[C@@H]1CCCN1C(=O)[C@H](CO)NC(=O)[C@H](CCCNC(=N)N)NC(=O)c1ccc2c(c1)C(=O)OC21c2ccc(O)cc2Oc2cc(O)ccc21)C(C)C)C(=O)N[C@@H](Cc1ccccc1)C(=O)N[C@@H](CCC(N)=O)C(=O)N[C@@H](CO)C(=O)N[C@@H](C)C(=O)N[C@@H](Cc1c[nH]c2ccccc12)C(=O)N[C@@H](Cc1ccc(O)cc1)C(=O)N[C@@H](CO)C(=O)NCC(N)=O` [Peptide H14A] (5FAM-RSPESVAFPMFQSAWYSG-NH2), the Response at binding in data set [5] amounted to 10 RU. In addition, in data set [2], the “effect of mutation to alanine on binding” value was “complete loss in binding”.
Consider `CC(C)[C@H](NC(=O)[C@H](CO)NC(=O)[C@H](CCC(=O)O)NC(=O)[C@@H]1CCCN1C(=O)[C@H](CO)NC(=O)[C@H](CCCNC(=N)N)NC(=O)c1ccc2c(c1)C(=O)OC21c2ccc(O)cc2Oc2cc(O)ccc21)C(=O)N[C@@H](C)C(=O)N[C@@H](Cc1ccccc1)C(=O)N1CCC[C@H]1C(=O)N[C@@H](C)C(=O)N[C@@H](Cc1ccccc1)C(=O)N[C@@H](CCC(N)=O)C(=O)N[C@@H](CO)C(=O)N[C@@H](Cc1c[nH]cn1)C(=O)N[C@@H](Cc1c[nH]c2ccccc12)C(=O)N[C@@H](Cc1ccc(O)cc1)C(=O)N[C@@H](CO)C(=O)NCC(N)=O` [Peptide M10A] (5FAM-RSPESVAFPAFQSHWYSG-NH2), for which the Response at binding in data set [5] is 7 RU. In addition, the “effect of mutation to alanine on binding” value in data set [2] was “complete loss in binding”.
In the case of `CSCC[C@H](NC(=O)[C@@H]1CCCN1C(=O)[C@H](Cc1ccccc1)NC(=O)[C@H](C)NC(=O)[C@H](C)NC(=O)[C@H](CO)NC(=O)[C@H](CCC(=O)O)NC(=O)[C@@H]1CCCN1C(=O)[C@H](CO)NC(=O)[C@H](CCCNC(=N)N)NC(=O)c1ccc2c(c1)C(=O)OC21c2ccc(O)cc2Oc2cc(O)ccc21)C(=O)N[C@@H](Cc1ccccc1)C(=O)N[C@@H](CCC(N)=O)C(=O)N[C@@H](CO)C(=O)N[C@@H](Cc1c[nH]cn1)C(=O)N[C@@H](Cc1c[nH]c2ccccc12)C(=O)N[C@@H](Cc1ccc(O)cc1)C(=O)N[C@@H](CO)C(=O)NCC(N)=O` [Peptide V6A] (5FAM-RSPESAAFPMFQSHWYSG-NH2), the dissociation constant (Kd) in data set [2] (setting [6]) stood at 39 nM.
On the same count and under the same terms, with `CSCC[C@H](NC(=O)[C@@H]1CCCN1C(=O)[C@H](Cc1ccccc1)NC(=O)[C@H](C)NC(=O)[C@@H](NC(=O)[C@H](CO)NC(=O)[C@H](CCC(=O)O)NC(=O)[C@@H]1CCCN1C(=O)[C@H](CO)NC(=O)[C@H](CCCNC(=N)N)NC(=O)c1ccc2c(c1)C(=O)OC21c2ccc(O)cc2Oc2cc(O)ccc21)C(C)C)C(=O)N[C@@H](Cc1ccccc1)C(=O)N[C@@H](CCC(N)=O)C(=O)N[C@@H](CO)C(=O)N[C@@H](Cc1c[nH]cn1)C(=O)N[C@@H](C)C(=O)N[C@@H](Cc1ccc(O)cc1)C(=O)N[C@@H](CO)C(=O)NCC(N)=O` [Peptide W15A] (5FAM-RSPESVAFPMFQSHAYSG-NH2) the figure was 24 nM.
As for `CSCC[C@H](NC(=O)[C@@H]1CCCN1C(=O)[C@H](Cc1ccccc1)NC(=O)[C@H](C)NC(=O)[C@@H](NC(=O)[C@H](CO)NC(=O)[C@H](CCC(=O)O)NC(=O)[C@@H]1CCCN1C(=O)[C@H](CO)NC(=O)[C@H](CCCNC(=N)N)NC(=O)c1ccc2c(c1)C(=O)OC21c2ccc(O)cc2Oc2cc(O)ccc21)C(C)C)C(=O)N[C@@H](Cc1ccccc1)C(=O)N[C@@H](CCC(N)=O)C(=O)N[C@@H](CO)C(=O)N[C@@H](Cc1c[nH]cn1)C(=O)N[C@@H](Cc1c[nH]c2ccccc12)C(=O)N[C@@H](C)C(=O)N[C@@H](CO)C(=O)NCC(N)=O` [Peptide Y16A] (5FAM-RSPESVAFPMFQSHWASG-NH2), the Response at binding in data set [5] worked out at 6 RU. For the same compound, in data set [2], the “effect of mutation to alanine on binding” value was “complete loss in binding”.
